# Patent US20220281848A1, “PYRAZOLE-SUBSTITUTED PYRROLIDINONES AS HERBICIDES” (FMC Corporation, priority 2019, published 2022)
# Key:
# Type in all cases: in vivo
# corn (Zea mays, ZEAMX) = assay: Test A pre-emergence, corn; details: after 13 d
# Procedure, shortened: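 After sowing in pots and a single day of glasshouse cultivation, the soil was treated with an aqueous spray of the compound (acetone/water 50:50, 0.5% Tween 20) giving 15.625, 62.5 or 250 g/ha. Evaluation after 13 d used a scale where 0 meant no damage and 100 total damage.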
# [1] = system: ivy-leaved morning glory (Ipomoea hederacea, IPOHE); assay: Test A post-emergence, ivy-leaved morning glory; details: after 13 d
# Procedure, shortened: (§1)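 Visual damage rating (0 no damage to 100 total damage) was made 13 d after spraying. The spray was 15.625, 62.5 or 250 g/ha in 50:50 acetone/water with 0.5% Tween 20, applied to 8-day-old glasshouse plants kept at 24/16° C, 14 h light and 65% humidity.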
# [2] = system: velvetleaf (Abutilon theophrasti, ABUTH); assay: Test A post-emergence, velvetleaf; details: after 13 d
# Procedure, shortened: as §1
# wheat = assay: Test D pre-emergence, wheat seed treated with a herbicide safener; details: 100=total damage, 0=no damage
# Procedure, shortened: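 Damage was rated visually from 0 (none) to 100 (total), at 20 DAA for pre-emergence and 15 d for post-emergence. Plants grew from safener-treated seed in a glasshouse at 24/18° C. or 20/16° C. day/night, 65% humidity, watered twice daily.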
# plants = assay: Test D post-emergence, other plants of Tables D2 and D4; details: post-emergence
# Procedure: A formulation containing 50 g/L of the test chemical was prepared by dissolving the active ingredient in a mixture of organic solvents and emulsifier, details of which are provided in the table. This formulation was then mixed with a small, variable amount of acetone to aid dissolution, before addition of a 0.2% v/v aqueous solution of an adjuvant, as the aqueous diluent, to form an aqueous spray solution which contains a predetermined concentration of the active ingredient.
# This aqueous spray solution was then sprayed onto plants including maize and wheat that had been seed treated with a herbicide safener, after one day's cultivation (for pre-emergence) or after about 12 days' cultivation (for post-emergence). The plants were grown from seeds sown in standard soil, placed in a glasshouse under controlled conditions (at 24/18° C. or 20/16° C., day/night; 16 h light; 65% humidity). After spray application the plants were then grown in a glasshouse under the same conditions and watered twice daily. After 15 d for post-emergence and 20 DAA for pre-emergence the test was evaluated (100=total damage to plant; 0=no damage to plant).
structure (smiles),measurement,setting,value
CCn1nc([C@H]2CN(C)C(=O)[C@@H]2C(=O)Nc2cccc(F)c2F)c2cc(F)ccc21 [Compound 8],damage to plant (100=total damage; 0=no damage) ZEAMX,"corn (Zea mays, ZEAMX); Pre-Emergence at 15.625 g/ha",20
same,damage to plant (100=total damage; 0=no damage) ZEAMX,"corn (Zea mays, ZEAMX); Pre-Emergence at 62.5 g/ha",40
same,damage to plant (100=total damage; 0=no damage) ZEAMX,"corn (Zea mays, ZEAMX); Pre-Emergence at 250 g/ha",70
same,damage to plant (100=total damage; 0=no damage) IPOHE,[1]; Post-Emergence at 15.625 g/ha,20
same,damage to plant (100=total damage; 0=no damage) IPOHE,[1]; Post-Emergence at 62.5 g/ha,0
same,damage to plant (100=total damage; 0=no damage) IPOHE,[1]; Post-Emergence at 250 g/ha,30
same,damage to plant (100=total damage; 0=no damage) ABUTH,[2]; Post-Emergence at 15.625 g/ha,0
same,damage to plant (100=total damage; 0=no damage) ABUTH,[2]; Post-Emergence at 62.5 g/ha,0
same,damage to plant (100=total damage; 0=no damage) ABUTH,[2]; Post-Emergence at 250 g/ha,0
same,"damage to plant, TRZAW","wheat; rate 15, 20 DAA",0
same,"damage to plant, TRZAW","wheat; rate 30, 20 DAA",0
same,"damage to plant, TRZAW","wheat; rate 60, 20 DAA",0
same,"damage to plant, TRZAW","wheat; rate 130, 20 DAA",0
same,"damage to plant, TRZAW","wheat; rate 250, 20 DAA",0
same,"damage to plant, TRZAW","wheat; rate 500, 20 DAA",0
same,"damage to plant (100=total damage to plant; 0=no damage to plant), ABUTH","plants; rate 130, evaluated after 15 d",0
same,"damage to plant (100=total damage to plant; 0=no damage to plant), ABUTH","plants; rate 250, evaluated after 15 d",0
same,"damage to plant (100=total damage to plant; 0=no damage to plant), ABUTH","plants; rate 500, evaluated after 15 d",0
same,"damage to plant (100=total damage to plant; 0=no damage to plant), AMARE","plants; rate 130, evaluated after 15 d",0
same,"damage to plant (100=total damage to plant; 0=no damage to plant), AMARE","plants; rate 250, evaluated after 15 d",0
same,"damage to plant (100=total damage to plant; 0=no damage to plant), AMARE","plants; rate 500, evaluated after 15 d",0
same,"damage to plant (100=total damage to plant; 0=no damage to plant), BIDPI","plants; rate 130, evaluated after 15 d",0
same,"damage to plant (100=total damage to plant; 0=no damage to plant), BIDPI","plants; rate 250, evaluated after 15 d",0
same,"damage to plant (100=total damage to plant; 0=no damage to plant), BIDPI","plants; rate 500, evaluated after 15 d",0
same,"damage to plant (100=total damage to plant; 0=no damage to plant), BRAPL","plants; rate 130, evaluated after 15 d",10
same,"damage to plant (100=total damage to plant; 0=no damage to plant), BRAPL","plants; rate 250, evaluated after 15 d",70
same,"damage to plant (100=total damage to plant; 0=no damage to plant), BRAPL","plants; rate 500, evaluated after 15 d",70
same,"damage to plant (100=total damage to plant; 0=no damage to plant), CYPES","plants; rate 130, evaluated after 15 d",0
same,"damage to plant (100=total damage to plant; 0=no damage to plant), CYPES","plants; rate 250, evaluated after 15 d",0
same,"damage to plant (100=total damage to plant; 0=no damage to plant), CYPES","plants; rate 500, evaluated after 15 d",0
same,"damage to plant (100=total damage to plant; 0=no damage to plant), DIGSA","plants; rate 130, evaluated after 15 d",0
same,"damage to plant (100=total damage to plant; 0=no damage to plant), DIGSA","plants; rate 250, evaluated after 15 d",80
same,"damage to plant (100=total damage to plant; 0=no damage to plant), DIGSA","plants; rate 500, evaluated after 15 d",80
same,"damage to plant (100=total damage to plant; 0=no damage to plant), ECHCG","plants; rate 130, evaluated after 15 d",0
same,"damage to plant (100=total damage to plant; 0=no damage to plant), ECHCG","plants; rate 250, evaluated after 15 d",80
same,"damage to plant (100=total damage to plant; 0=no damage to plant), ECHCG","plants; rate 500, evaluated after 15 d",80
same,"damage to plant (100=total damage to plant; 0=no damage to plant), EPHHL","plants; rate 250, evaluated after 15 d",30
same,"damage to plant (100=total damage to plant; 0=no damage to plant), EPHHL","plants; rate 500, evaluated after 15 d",20
same,"damage to plant (100=total damage to plant; 0=no damage to plant), GLXMA","plants; rate 130, evaluated after 15 d",0
same,"damage to plant (100=total damage to plant; 0=no damage to plant), GLXMA","plants; rate 250, evaluated after 15 d",0
same,"damage to plant (100=total damage to plant; 0=no damage to plant), GLXMA","plants; rate 500, evaluated after 15 d",0
same,"damage to plant (100=total damage to plant; 0=no damage to plant), IPOHE","plants; rate 130, evaluated after 15 d",0
same,"damage to plant (100=total damage to plant; 0=no damage to plant), IPOHE","plants; rate 250, evaluated after 15 d",0
same,"damage to plant (100=total damage to plant; 0=no damage to plant), IPOHE","plants; rate 500, evaluated after 15 d",0
same,"damage to plant (100=total damage to plant; 0=no damage to plant), ORYSA","plants; rate 130, evaluated after 15 d",0
same,"damage to plant (100=total damage to plant; 0=no damage to plant), ORYSA","plants; rate 250, evaluated after 15 d",0
same,"damage to plant (100=total damage to plant; 0=no damage to plant), ORYSA","plants; rate 500, evaluated after 15 d",10
same,"damage to plant (100=total damage to plant; 0=no damage to plant), PANMI","plants; rate 130, evaluated after 15 d",0
same,"damage to plant (100=total damage to plant; 0=no damage to plant), PANMI","plants; rate 250, evaluated after 15 d",0
same,"damage to plant (100=total damage to plant; 0=no damage to plant), PANMI","plants; rate 500, evaluated after 15 d",0
same,"damage to plant (100=total damage to plant; 0=no damage to plant), SETFA","plants; rate 130, evaluated after 15 d",0
same,"damage to plant (100=total damage to plant; 0=no damage to plant), SETFA","plants; rate 250, evaluated after 15 d",60
same,"damage to plant (100=total damage to plant; 0=no damage to plant), SETFA","plants; rate 500, evaluated after 15 d",80
same,"damage to plant (100=total damage to plant; 0=no damage to plant), SIDSP","plants; rate 130, evaluated after 15 d",0
same,"damage to plant (100=total damage to plant; 0=no damage to plant), SIDSP","plants; rate 250, evaluated after 15 d",0
same,"damage to plant (100=total damage to plant; 0=no damage to plant), SIDSP","plants; rate 500, evaluated after 15 d",10
same,"damage to plant (100=total damage to plant; 0=no damage to plant), SORVU","plants; rate 130, evaluated after 15 d",0
same,"damage to plant (100=total damage to plant; 0=no damage to plant), SORVU","plants; rate 250, evaluated after 15 d",0
same,"damage to plant (100=total damage to plant; 0=no damage to plant), SORVU","plants; rate 500, evaluated after 15 d",0
